Results from paper PMC13377601, “Discovery of VU6066098: A Selective and CNS-Penetrant mGlu2 NAM with Robust Antidepressant‑, Antipsychotic‑, and Procognitive-like Activity in Rodents” (ACS Chemical Neuroscience, 2026).

Molecular target: T1, human mGlu2 (Homo sapiens, UniProt Q14416)
T1 construct: expressed in transfected cells; host or cells: HEK293 stably co-expressing GIRK channels
Test: mGlu2/GIRK thallium flux assay (human)
Assay type: cell-based
Settings: NAM vs glutamate EC80

T1 sequence (Q14416 19-872): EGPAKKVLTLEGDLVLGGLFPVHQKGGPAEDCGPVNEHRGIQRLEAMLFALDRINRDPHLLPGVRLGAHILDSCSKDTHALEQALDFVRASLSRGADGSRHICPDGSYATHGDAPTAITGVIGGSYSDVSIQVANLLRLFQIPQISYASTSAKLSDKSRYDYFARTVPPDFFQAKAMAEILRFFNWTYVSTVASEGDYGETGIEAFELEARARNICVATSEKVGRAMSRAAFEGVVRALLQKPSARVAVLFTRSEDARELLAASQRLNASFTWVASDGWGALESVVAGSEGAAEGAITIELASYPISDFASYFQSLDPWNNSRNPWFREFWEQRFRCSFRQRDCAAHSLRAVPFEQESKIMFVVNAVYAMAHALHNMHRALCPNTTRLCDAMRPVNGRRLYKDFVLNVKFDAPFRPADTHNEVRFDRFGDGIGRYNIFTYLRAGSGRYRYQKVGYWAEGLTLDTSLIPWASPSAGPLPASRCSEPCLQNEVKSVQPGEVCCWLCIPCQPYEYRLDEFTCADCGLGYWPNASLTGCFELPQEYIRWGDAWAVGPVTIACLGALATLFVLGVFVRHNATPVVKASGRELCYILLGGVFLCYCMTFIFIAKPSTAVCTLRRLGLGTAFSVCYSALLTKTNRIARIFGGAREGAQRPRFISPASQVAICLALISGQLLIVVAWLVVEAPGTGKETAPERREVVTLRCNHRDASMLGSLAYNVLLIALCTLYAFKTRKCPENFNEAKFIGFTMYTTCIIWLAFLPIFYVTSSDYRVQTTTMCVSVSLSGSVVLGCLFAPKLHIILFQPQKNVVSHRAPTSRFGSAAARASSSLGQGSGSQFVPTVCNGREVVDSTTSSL

- IC50: 78 nM
Structure (SMILES): Cn1ccc(COc2cnc(C(N)=O)cc2-c2ccc(F)cc2)n1 [NAM 5]
